Test system: Nannochloropsis gaditana
Assay: Nile Red staining of oil accumulation in Nannochloropsis gaditana incubated with inhibitors of sterol metabolism
Type: cell-based
Conditions: ESAW 1N1P and ESAW 10N10P media; time course at least 7 days; FIGS. 5 and 6
Experimental: Experiments were performed in two different conditions of Nannochloropsis gaditana: cells were either cultured in ESAW containing 47 mg·L^−1 NaNO3 and 3 mg·L^−1 NaH2PO4 (medium 1N1P), or 470 mg/L NaNO3 and 30 mg·L^−1NaH2PO4) (medium 10N10P). Cells in an exponential growth phase were collected via centrifugation at 3500 rpm for 10 minutes. The supernatant was discarded and the cells were resuspended in the same volume of ESAW medium (either 1N1P or 10N10P). The cultures were centrifuged again at 3500 rpm, for 10 minutes, and the supernatant was discarded. The pellet was resuspended in ESAW (either 1N1P or 10N10P) to obtain a concentration of 2×10^6 cells/mL. […]
Each day, an aliquot was taken from each flask in order to perform a Nile Red stain and cell counts. […] In order to detect any background noise, fluorescence was measured at excitation and emission of 530 nm and 580 nm, respectively. […] After 20 minutes of incubation, Nile Red fluorescence was measured at excitation and emission of 530 nm and 580 nm, respectively.
Nile Red Fluorescence was normalized by calculating the relative fluorescence units per million cells. Results were expressed as a percentage of Nile Red fluorescence of Nannochloropsis gaditana cultured in complete medium (either ESAW (10N10P) or ESAW (1N1P)).

## CN(Cc1ccc(C(C)(C)C)cc1)Cc1cccc2ccccc12 [Butenafine]
  accumulation of oil (Nile Red fluorescence per million cells): trigger the accumulation of oil

## C#C[C@]1(O)CC[C@H]2[C@@H]3CCc4cc(O)ccc4[C@H]3CC[C@@]21C [Ethinylestradiol]
  accumulation of oil (Nile Red fluorescence per million cells): trigger the accumulation of oil
